Earlier results in patent US10543184B2, “Method to treat functional somatic syndromes with combination of aciclovir and celecoxib” (INNOVATIVE MED CONCEPTS, LLC, priority 2012, dated 2020).

Tested on: fibromyalgia patients
Conditions: Kendall et al., J. Rheumatology (2004) 31, 783-784

## CC(C)[C@H](N)C(=O)OCCOCn1cnc2c(=O)[nH]c(N)nc21 [valacyclovir]
  Outcome of treating fibromyalgia patients: not successful
